Results published in patent publication US20020148006A1, “Transgenic plants with modified sterol compositions” (Asgrow Seed Company, L.L.C., priority 1996, published 2002).
“Also recorded” adds a separate entry of the source.

What was measured:
[1] = system: Heliothis zea; experiment: Sterol utilization and metabolism by Heliothis zea reared on artificial diet with sterol supplement; details: for Instar reached by day 20 / Growth response: sterol 200 ppm in diet; for Growth response: 20-day larvae, relative to growth on cholesterol normalized to 100%; for Utilization by H. zea / support of larval growth and development (words): test sterol as sole added dietary sterol
Description: Heliothis zea (corn earworm) was reared on an artificial diet treated with different sterol supplements to study the relation between sterol structure and utilization in insects. H. zea eggs were used to establish a disease-free stock colony.
The stock insects were reared using sterile procedures on a pinto bean-based diet. Moths were fed 10% sucrose. Cultures were maintained at 27±1° C., at 40±10% relative humidity on a 14:10 light-dark photoperiod and an artificial diet was used to rear the insects on different sterol supplements. The experimental diet contained agar, which is known to contain trace contamination of cholesterol, otherwise the experimental diet was sterol-free.
Sterols were solubilized in acetone. Aliquots of the solutions were added to the sterol-free diet in a mortar, the material mixed thoroughly with the diet, and the organic solvent allowed to evaporate. Sterols were supplied to the medium at 200 ppm (equivalent to 1 mg of sterol per experimental vessel containing one insect).
By day 20, H. zea larva are in the final stage of larval development (sixth instar), after which the insects may pupate. A single neonate larva was placed in an experimental culture vial and allowed to grow for 20 days. The fresh weight, length and instar stage of 20-day larva were recorded.
In some treatments, the larvae were allowed to grow for another 4 days to determine whether they could pupate properly and develop into moth forms.
These fatty alcohols may comigrate with sterols during some forms of chromatography and interfere with sterol quantitation, particularly of cholesterol. Therefore, in order to confirm the identity and amount of cholesterol in the insect an aliquot of the NSF was injected into a HPLC column and the fraction corresponding to cholesterol was examined by GC-MS.

[2] = system: (S)-adenosyl-L-methionine: Δ^24-sterol methyl transferase (SMT); experiment: Sterol specificity (substrate methylation) of SMT enzyme from 4-day corn seedlings; format: biochemical, Zea mays (corn); details: for % Activity, relative to cycloartenol methylation: soluble SMT; for Enzyme Activity: soluble SMT from corn seedlings, BG = background
Description: The sterol specificity of the microsome-bound and soluble SMT enzyme from 4-day corn seedlings was determined in order to elucidate the enzymatic basis for the plant sterols identified in Example 1.

[3] = system: (S)-adenosyl-L-methionine: Δ^24-sterol methyl transferase (SMT); experiment: Effect of substrate and transition state analog inhibitors on soluble SMT enzyme from 4-day seedlings; format: biochemical, Zea mays (corn); details: soluble corn SMT
[4] = Table 11, insect tissues, RP-HPLC and GC-MS
[5] = substrates marked (C1), first methyl transfer

## 24-Ethyl cholesta-5,24-dienol
[1]; Table 11
  Instar reached by day 20: 3
  Growth response: 10%

## 24-Methyl cholesta-5,24-dienol
[1]; [4]
  Sterol composition (as % total sterol): cholesterol: 35%
  Sterol composition (as % total sterol): ts: 65%
[1]; Table 11
  Instar reached by day 20: 3
  Growth response: 5%

## 24-methyl cholesta-5,23-dienol [24-Methylcholesta-5,23-dienol]
[1]; [4]
  Sterol composition (as % total sterol): cholesterol: 20%
  Sterol composition (as % total sterol): ts: 80%
[1]; Table 11
  Instar reached by day 20: 5
  Growth response: 50%
[1]
  Utilization by H. zea / support of larval growth and development (words): non-utilizable; also recorded: #deformities. Insects in the nonutilizable category generally weighed less than 100 mg per insect and their length ranged from 2 to 15 mm, with 6 to 12 insects alive at day 20

## 24-methyl cholesta-5,25(27)-dienol
[1]
  Utilization by H. zea / support of larval growth and development (words): non-utilizable

## CC(C)=CCC[C@@H](C)[C@H]1CC[C@H]2C3=C(CC[C@]12C)[C@@]1(C)CCCCC1CC3 (stereo partly drawn) [3-Desoxyzymosterol]
[2]; (C1), first methyl transfer
  % Activity, relative to cycloartenol methylation: 0 (C1) %

## C=C(CC[C@@H](C)[C@H]1CC[C@H]2C3=C(CC[C@]12C)[C@@]1(C)CC[C@H](O)[C@@H](C)C1CC3)C(C)C (stereo partly drawn) [4α-Methylergosta-8,24(28)-dienol]
[2]; substrates marked (C2), second methyl transfer
  Enzyme Activity: 1,500 dpm/min
[2]; (C2), second methyl transfer
  % Activity, relative to cycloartenol methylation: 4 (C2) %

## CC(C)=CCC[C@@H](C)[C@H]1CC[C@H]2C3=C(CC[C@]12C)[C@@]1(C)CC[C@H](O)[C@@H](C)[C@@H]1CC3 [4α-Methylzymosterol]
[2]; [5]
  Enzyme Activity: 10,504 dpm/min
[2]; (C1), first methyl transfer
  % Activity, relative to cycloartenol methylation: 28 (C1) %

## CC(C)=CCCC(C)C1CC[C@@]2(C)C3=C(CCC12C)C1(C)CCC(O)CC1CC3 (stereo partly drawn) [14α-Methylzymosterol]
[2]; [5]
  Enzyme Activity: 3,376 dpm/min
[2]; (C1), first methyl transfer
  % Activity, relative to cycloartenol methylation: 9 (C1) %

## C=C(CC[C@@H](C)[C@H]1CC[C@H]2[C@@H]3CC=C4CC(O)CC[C@]4(C)[C@H]3CC[C@]12C)C(C)C (stereo partly drawn) [24(28)-Methylenecholesterol, 24(28)-methylenecholesterol]
[1]; Table 11
  Instar reached by day 20: 6
  Growth response: 100%
[1]; in vivo
  Sterol composition (as % total sterol): cholesterol: 84%
  Sterol composition (as % total sterol): ts: 16%
  Total sterol µg/insect: 59 µg/insect
[1]
  Utilization by H. zea / support of larval growth and development (words): supported larval growth to late-sixth instar

## CC(CCC1NC1(C)C)[C@H]1CC[C@@]2(C)C3=C(CC[C@]12C)[C@]1(C)CC[C@H](O)C(C)(C)[C@@H]1CC3 (stereo partly drawn) [24-(R,S)-25-Epiminolanosterol, 24-(R,S)-25-epiminolanosterol]
[3]
  Type of inhibition / kinetic pattern: non-competitive type kinetic pattern

## CC(C)=CCC[C@@H](C)[C@H]1CC[C@@]2(C)[C@@H]3CC[C@H]4C[C@@H](O)CC[C@@]45C[C@@]35CC[C@]12C [24-Dehydropollinstanol]
[2]; [5]
  Enzyme Activity: 8,253 dpm/min
[2]; (C1), first methyl transfer
  % Activity, relative to cycloartenol methylation: 22 (C1) %
[1]; Table 11
  Instar reached by day 20: 3
  Growth response: 5%
[1]; in vivo
  Sterol composition (as % total sterol): cholesterol: 14%
  Sterol composition (as % total sterol): ts: 86%
  Total sterol µg/insect: 0.6 µg/insect

## CC(C)CCC[C@@H](C)[C@H]1CC[C@@]2(C)C3=C(CC[C@]12C)[C@@]1(C)CC[C@H](O)C(C)(C)[C@@H]1CC3 [24-Dihydrolanosterol]
[1]; Table 11
  Instar reached by day 20: 3
  Growth response: 5%

## CCC(=CC[C@@H](C)[C@H]1CC[C@H]2[C@@H]3CC=C4CC(O)CC[C@]4(C)[C@H]3CC[C@]12C)C(C)C (stereo partly drawn) [24-Ethyl cholesta-5,23-dienol]
[1]; [4]
  Sterol composition (as % total sterol): cholesterol: 14%
  Sterol composition (as % total sterol): ts: 86%
[1]; Table 11
  Instar reached by day 20: 3
  Growth response: 20%

## CC(C)=CCC[C@@H](C)[C@H]1CC[C@@]2(C)[C@@H]3CC[C@H]4[C@H](C)[C@@H](O)CC[C@@]45C[C@@]35CC[C@]12C [31-Norcycloartenol]
[2]; [5]
  Enzyme Activity: 18,757 dpm/min
[2]; (C1), first methyl transfer
  % Activity, relative to cycloartenol methylation: 50 (C1) %

## CC(C)CCC[C@@H](C)[C@H]1CC[C@H]2C3=C(CC[C@]12C)[C@@]1(C)CCC(O)CC1CC3 (stereo partly drawn) [Cholest-8-enol]
[2]; (C1), first methyl transfer
  % Activity, relative to cycloartenol methylation: 0 (C1) %
[1]; Table 11
  Instar reached by day 20: 3
  Growth response: 5%
[1]
  Utilization by H. zea / support of larval growth and development (words): inability of cholest-8-enol to support growth

## C=C(C)C(CC)CCC(C)C1CCC2C3CC=C4CC(O)CCC4(C)C3CCC12C (stereo not drawn) [Clereosterol]
[1]; Table 11
  Instar reached by day 20: 3
  Growth response: 20%
[1]; in vivo
  Sterol composition (as % total sterol): cholesterol: 20%
  Sterol composition (as % total sterol): ts: 80%
  Total sterol µg/insect: 3 µg/insect

## CC[C@@H](CC[C@@H](C)[C@H]1CC[C@H]2[C@@H]3CC=C4C[C@@H](O)CC[C@]4(C)[C@H]3CC[C@]12C)C(C)C [Clionasterol]
[1]; Table 11
  Instar reached by day 20: 6
  Growth response: 100%
[1]
  Utilization by H. zea / support of larval growth and development (words): supported larval growth to late-sixth instar

## C=C(CC[C@@H](C)[C@H]1CC[C@@]2(C)[C@@H]3CC[C@H]4[C@H](C)[C@@H](O)CC[C@@]45C[C@@]35CC[C@]12C)C(C)C [Cycloeucalenol]
[2]; (C2), second methyl transfer
  % Activity, relative to cycloartenol methylation: 0 (C2) %

## C=C(CC[C@@H](C)[C@H]1CC[C@H]2[C@@H]3CC=C4C[C@@H](O)CC[C@]4(C)[C@H]3CC[C@]12C)C(C)C [Ergosta-5,24(28)-dienol]
[2]; (C2), second methyl transfer
  % Activity, relative to cycloartenol methylation: 0 (C2) %

## C=C(CC[C@@H](C)[C@H]1CC[C@H]2C3=CCC4CC(O)CC[C@]4(C)[C@H]3CC[C@]12C)C(C)C (stereo partly drawn) [Ergosta-7,24(28)-dienol]
[2]; (C2), second methyl transfer
  % Activity, relative to cycloartenol methylation: 0 (C2) %

## C=C(CC[C@@H](C)[C@H]1CC[C@H]2C3=C(CC[C@]12C)[C@@]1(C)CC[C@H](O)CC1CC3)C(C)C (stereo partly drawn) [Ergosta-8,24(28)-dienol]
[2]; (C2), second methyl transfer
  % Activity, relative to cycloartenol methylation: 0 (C2) %

## C/C=C(\CC[C@@H](C)[C@H]1CC[C@H]2[C@@H]3CC=C4C[C@@H](O)CC[C@]4(C)[C@H]3CC[C@]12C)C(C)C [Fucosterol]
[1]; [4]
  Sterol composition (as % total sterol): ts: 10%
[1]; Table 11
  Instar reached by day 20: 6
  Growth response: 100%
[1]
  Utilization by H. zea / support of larval growth and development (words): supported larval growth to late-sixth instar

## C/C=C(/CCC(C)C1CCC2C3CC=C4CC(O)CCC4(C)C3CCC12C)C(C)C (stereo not drawn) [Isofucosterol]
[1]; [4]
  Sterol composition (as % total sterol): ts: 8%
[1]; Table 11
  Instar reached by day 20: 6
  Growth response: 100%
[1]
  Utilization by H. zea / support of larval growth and development (words): supported larval growth to late-sixth instar

## CC(C)=CCC[C@@H](C)[C@H]1CC[C@@]2(C)C3=C(CC[C@]12C)[C@@]1(C)CC[C@H](O)C(C)(C)[C@@H]1CC3 [Lanosterol]
[2]; [5]
  Enzyme Activity: 24,384 dpm/min
[2]; (C1), first methyl transfer
  % Activity, relative to cycloartenol methylation: 65 (C1) %
[1]; Table 11
  Instar reached by day 20: 3
  Growth response: 5%
[1]
  Utilization by H. zea / support of larval growth and development (words): could not be met satisfactorily

## C=C(CC[C@@H](C)[C@H]1CC[C@@]2(C)C3=C(CC[C@]12C)[C@@]1(C)CC[C@H](O)[C@@H](C)[C@@H]1CC3)C(C)C [Obtusifoliol]
[2]; (C2), second methyl transfer
  % Activity, relative to cycloartenol methylation: 0 (C2) %

## CC(C)=CCC[C@@H](C)[C@H]1CC[C@@]2(C)[C@@H]3CC[C@H]4C(C)(C)[C@@H](O)CC[C@]4(C)C3=CC[C@]12C [Parkeol]
[2]; [5]
  Enzyme Activity: 6,002 dpm/min
[2]; (C1), first methyl transfer
  % Activity, relative to cycloartenol methylation: 16 (C1) %

## CCC(/C=C/C(C)C1CCC2C3CC=C4CC(O)CCC4(C)C3CCC12C)C(C)C (stereo not drawn) [Stigmasterol, stigmasterol]
[1]; [4]
  Sterol composition (as % total sterol): ts: 15%
[1]; Table 11
  Instar reached by day 20: 6
  Growth response: 100%
[1]
  Utilization by H. zea / support of larval growth and development (words): supported larval growth to late-sixth instar

## (S)-adenosyl-L-methionine [coenzyme]
[2]; same for the first and second methylation reactions, read-out: Km for the coenzyme
  Km: 5 µM
